The values that follow come from ChEMBL document CHEMBL1133376, “Recognition and inhibition of HIV integrase by a novel dinucleotide” (Bioorg Med Chem Lett, 2000).

SMILES strings stand for the structures.

Test [1] deals with Human immunodeficiency virus type 1 integrase (Human immunodeficiency virus 1) (UniProt Q7ZJM1). Kind of test: Inhibition of 3' processing step useful in the integration of viral DNA into host cell DNA by inhibiting HIV integrase by compound.
Test [2] has the same target. The test is described as follows: Inhibition of strand transfer step useful in the integration of viral DNA into host cell DNA by inhibiting HIV integrase by compound.

Human immunodeficiency virus type 1 integrase (Human immunodeficiency virus 1), sequence (Q7ZJM1 as listed by the source): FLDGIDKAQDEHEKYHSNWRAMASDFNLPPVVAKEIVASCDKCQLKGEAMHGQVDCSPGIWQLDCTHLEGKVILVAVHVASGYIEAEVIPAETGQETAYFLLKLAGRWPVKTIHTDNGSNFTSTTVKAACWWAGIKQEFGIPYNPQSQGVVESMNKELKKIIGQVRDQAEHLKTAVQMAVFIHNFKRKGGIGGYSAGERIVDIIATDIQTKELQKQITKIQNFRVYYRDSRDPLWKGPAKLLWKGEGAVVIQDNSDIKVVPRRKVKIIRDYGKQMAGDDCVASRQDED

Turning to `Nc1ccn(C2CCC(COP(=O)(O)O)O2)c(=O)n1` (configuration not stated), the Inhibitory activity in test [1] is 50 µM; in test [2], 45 µM.

Turning to `Nc1ccn([C@H]2C[C@H](O)[C@@H](COP(=O)(O)O[C@H]3C[C@H](n4cnc5c(N)ncnc54)O[C@@H]3COP(=O)(O)O)O2)c(=O)n1`, the Inhibitory activity in test [1] came to 6 µM; in test [2], 3 µM.

Consider `Nc1ccn([C@H]2C[C@H](O)[C@@H](COP(=O)(O)O[C@H]3[C@H](n4cnc5c(N)ncnc54)CO[C@@H]3CO)O2)c(=O)n1`, for which the Inhibitory activity in test [1] and in test [2] was 200 µM in each case.

Turning to `Nc1ncnc2c1ncn2C1COC(COP(=O)(O)O)C1O` (configuration not stated), the Inhibitory activity in test [1] and in test [2] was > 200 µM in each case.

Consider `Cc1cn([C@H]2C[C@H](N=[N+]=[N-])[C@@H](COP(=O)(O)O)O2)c(=O)[nH]c1=O`, for which the Inhibitory activity is > 110 µM in test [1] and 140 µM in test [2].

In the case of `Nc1ccn([C@H]2C[C@H](O)[C@@H](COP(=O)(O)O[C@H]3[C@H](n4cnc5c(N)ncnc54)CO[C@@H]3COP(=O)(O)O)O2)c(=O)n1`, the values for the Inhibitory activity in test [1] and in test [2] were 19 µM and 25 µM, respectively.
